Measurements reported in ChEMBL document CHEMBL4613212, “Insights of synthetic analogues of anti-leprosy agents” (Bioorg Med Chem, 2019).
Values after ≈ are worked out from the molar mass of the structure shown.

System: Mycobacterium tuberculosis
Experiment: Antimycobacterial activity against Mycobacterium bovis BCG Pasteur incubated for 10 days by spectrophotometric based assay
Format: functional
Conditions: variant bovis BCG, 240 h

Compound | MIC99 [µM]
CCCCCCCCC(CCC1CCCC1)C(N)=O (stereo not given) | 5400 (≈ 1440 µg/mL)
O=C(O)C(CCCCCCCF)CCC1CCCC1 (stereo not given) | 1600 (≈ 436 µg/mL)
CCCCCCCCC(CCC1CCCC1)C(=O)NCC (stereo not given) | 4400 (≈ 1300 µg/mL)
CCCCCCCCC(COC1CCCC1)C(=O)O (stereo not given) | 2200 (≈ 595 µg/mL)
CCCCCCOCC(CCC1CCCC1)C(=O)O (stereo not given) | 1100 (≈ 297 µg/mL)
O=C1c2ccccc2C(=O)N1c1ccc(S(=O)(=O)Nc2ccncn2)cc1 | 1900 (≈ 723 µg/mL)
CCCCCCCCC(CCC1CCCN1)C(=O)O (stereo not given) | 5100 (≈ 1370 µg/mL)
CCCCCCCCC(CCC1CCCO1)C(=O)O (stereo not given) | 2500 (≈ 676 µg/mL)
O=C1c2ccccc2C(=O)N1c1ccc(S(=O)(=O)Nc2ccccn2)cn1 | 1900 (≈ 723 µg/mL)
CCCCCCCCC(CCC1CCCC1)C(=O)OC (stereo not given) | 1500 (≈ 424 µg/mL)
O=C1c2ccccc2C(=O)N1c1cnc(S(=O)(=O)Nc2ccccn2)cn1 | 900 (≈ 343 µg/mL)
O=C1c2ccccc2C(=O)N1c1ccc(S(=O)(=O)Nc2cnccn2)cc1 | 1000 (≈ 380 µg/mL)
CCCCCCCCC(CCC1=CCC=C1)C(=O)O (stereo not given) | 6000 (≈ 1590 µg/mL)
CCCOCOCCC(CCC1CCCC1)C(=O)O (stereo not given) | 500 (≈ 136 µg/mL)
CCCCCCCCC(CCC1CCCS1)C(=O)O (stereo not given) | 5400 (≈ 1550 µg/mL)
